# Measurements reported in patent US20090047221A1 (NIPRI LIMITED, priority 2004, published 2009).
# System: cancer cell line MDA-MB-468
# Experiment: Combination index with known cancer drugs against proliferation (Calcusyn software)
# Type: cell-based
# Excerpt: A combination index of less than 0.1 indicates very strong synergy; a combination index of 0.1 to 0.3 indicates strong synergism; a combination index of 0.3 to 0.7 indicates synergism; a combination index of 0.7 to 0.85 indicates moderate synergism; a combination index of 0.85 to 0.9 indicates slight synergism and a combination index of 0.9 to 1.1 indicates only very slight synergism, said combination being close to merely additive.
# The combination index may be calculated using calcusyn software.
# Evidence of synergy was determined by calculation of the combination index using Calcusyn software.
# The MTT assay was used initially to determine the anti-proliferative activity of the test compounds. In the MTT assay a yellow thiazolyl blue tetrazolium bromide salt (MTT) is reduced, in metabolically active cells, to form insoluble purple formazan crystals which are solubilised by the addition of dimethyl sulphoxide (DMSO). Absorbance readings can then be determined spectrophotometrically and a relationship established between control untreated cells and drug treated cells enabling the quantification of anti-proliferative changes as a result of drug treatment (Mosmann, 1983).
# Wells containing medium only were used as blanks. Following the attachment period, cells were treated with appropriate drug concentrations (20 μl added per well). 40 mg/ml stock drug solutions, in DMSO, were stored at −20° C. and on the day of drug treatment working solutions of 4 mg/ml were prepared in medium which was further diluted to achieve final drug dilution volumes of 20 μl. Initial screening was determined over a concentration range of 1-200 μg/ml. For potent compounds the assay was repeated over a narrower concentration range to determine accurate IC50 values. Cells were exposed to drug for 96 h continual exposure (37° C., 5% CO2). Following the 96 h incubation, 50 μl MTT solution (1 g MTT/500 ml PBS) was added per well and the plates were further incubated for 4 h (37° C., 5% CO2). After incubation the MTT and medium was removed from the wells and 100 μl DMSO added per well. Plates were agitated on an orbital mixer platform (Stuart Scientific) for 10 minutes. Absorbance was measured at 570 nm on a Biotrak II (Amersham Bioscience) plate reader. IC50 values were calculated comparing control and drug treated cells.
compound,measurement,setting,value
"CC(C)CC(NC(=O)c1ccc2c(c1O)C(=O)OC(C)C2)C(=O)OC(C)(C)C (mixture of isomers) [ALM-55, Leucine Tert-Butyl Ester Amide]",Combination Index,"Cisplatin 1 × 10^−2 mol/L, ALM compound 0.1 μg/ml",0.003
same,Combination Index,"Cisplatin 1 × 10^−2 mol/L, ALM compound 0.5 μg/ml",0.009
same,Combination Index,"Cisplatin 1 × 10^−2 mol/L, ALM compound 1.0 μg/ml",0.023
same,Combination Index,"Cisplatin 1 × 10^−2 mol/L, ALM compound 5.0 μg/ml",0.11
same,Combination Index,"Cisplatin 1 × 10^−3 mol/L, ALM compound 0.1 μg/ml",0.031
same,Combination Index,"Cisplatin 1 × 10^−3 mol/L, ALM compound 0.5 μg/ml",No
same,Combination Index,"Cisplatin 1 × 10^−3 mol/L, ALM compound 1.0 μg/ml",No
same,Combination Index,"Cisplatin 1 × 10^−3 mol/L, ALM compound 5.0 μg/ml",No
same,Combination Index,"Cisplatin 1 × 10^−4 mol/L, ALM compound 0.1 μg/ml",No
same,Combination Index,"Cisplatin 1 × 10^−4 mol/L, ALM compound 0.5 μg/ml",No
same,Combination Index,"Cisplatin 1 × 10^−4 mol/L, ALM compound 1.0 μg/ml",No
same,Combination Index,"Cisplatin 1 × 10^−4 mol/L, ALM compound 5.0 μg/ml",No
same,Combination Index,"Cisplatin 1 × 10^−5 mol/L, ALM compound 0.1 μg/ml",No
same,Combination Index,"Cisplatin 1 × 10^−5 mol/L, ALM compound 0.5 μg/ml",No
same,Combination Index,"Cisplatin 1 × 10^−5 mol/L, ALM compound 1.0 μg/ml",No
same,Combination Index,"Cisplatin 1 × 10^−5 mol/L, ALM compound 5.0 μg/ml",No
same,Combination Index,"Cisplatin 1 × 10^−6 mol/L, ALM compound 0.1 μg/ml",No
same,Combination Index,"Cisplatin 1 × 10^−6 mol/L, ALM compound 0.5 μg/ml",No
same,Combination Index,"Cisplatin 1 × 10^−6 mol/L, ALM compound 1.0 μg/ml",No
same,Combination Index,"Cisplatin 1 × 10^−6 mol/L, ALM compound 5.0 μg/ml",No
same,Combination Index,"Cisplatin 1 × 10^−7 mol/L, ALM compound 0.1 μg/ml",0.431
same,Combination Index,"Cisplatin 1 × 10^−7 mol/L, ALM compound 0.5 μg/ml",No
same,Combination Index,"Cisplatin 1 × 10^−7 mol/L, ALM compound 1.0 μg/ml",No
same,Combination Index,"Cisplatin 1 × 10^−7 mol/L, ALM compound 5.0 μg/ml",No
same,Combination Index,"Cisplatin 1 × 10^−8 mol/L, ALM compound 0.1 μg/ml",0.155
same,Combination Index,"Cisplatin 1 × 10^−8 mol/L, ALM compound 0.5 μg/ml",No
same,Combination Index,"Cisplatin 1 × 10^−8 mol/L, ALM compound 1.0 μg/ml",No
same,Combination Index,"Cisplatin 1 × 10^−8 mol/L, ALM compound 5.0 μg/ml",No
same,Combination Index,"Cisplatin 1 × 10^−9 mol/L, ALM compound 0.1 μg/ml",0.093
same,Combination Index,"Cisplatin 1 × 10^−9 mol/L, ALM compound 0.5 μg/ml",0.531
same,Combination Index,"Cisplatin 1 × 10^−9 mol/L, ALM compound 1.0 μg/ml",No
same,Combination Index,"Cisplatin 1 × 10^−9 mol/L, ALM compound 5.0 μg/ml",No
same,Combination Index,"Doxorubicin 1 × 10^−4 mol/L, ALM compound 0.1 μg/ml",No
same,Combination Index,"Doxorubicin 1 × 10^−4 mol/L, ALM compound 0.5 μg/ml",No
same,Combination Index,"Doxorubicin 1 × 10^−4 mol/L, ALM compound 1.0 μg/ml",No
same,Combination Index,"Doxorubicin 1 × 10^−4 mol/L, ALM compound 5.0 μg/ml",No
same,Combination Index,"Doxorubicin 1 × 10^−5 mol/L, ALM compound 0.1 μg/ml",0.284
same,Combination Index,"Doxorubicin 1 × 10^−5 mol/L, ALM compound 0.5 μg/ml",No
same,Combination Index,"Doxorubicin 1 × 10^−5 mol/L, ALM compound 1.0 μg/ml",0.344
same,Combination Index,"Doxorubicin 1 × 10^−5 mol/L, ALM compound 5.0 μg/ml",0.969
same,Combination Index,"Etoposide 1 × 10^−4 mol/L, ALM compound 0.1 μg/ml",0.312
same,Combination Index,"Etoposide 1 × 10^−4 mol/L, ALM compound 0.5 μg/ml",0.142
same,Combination Index,"Etoposide 1 × 10^−4 mol/L, ALM compound 1.0 μg/ml",0.473
same,Combination Index,"Etoposide 1 × 10^−4 mol/L, ALM compound 5.0 μg/ml",0.335
same,Combination Index,"Etoposide 1 × 10^−5 mol/L, ALM compound 0.1 μg/ml",No
same,Combination Index,"Etoposide 1 × 10^−5 mol/L, ALM compound 0.5 μg/ml",1.136
same,Combination Index,"Etoposide 1 × 10^−5 mol/L, ALM compound 1.0 μg/ml",No
same,Combination Index,"Etoposide 1 × 10^−5 mol/L, ALM compound 5.0 μg/ml",No
same,Combination Index,"Etoposide 1 × 10^−6 mol/L, ALM compound 0.1 μg/ml",No
same,Combination Index,"Etoposide 1 × 10^−6 mol/L, ALM compound 0.5 μg/ml",No
same,Combination Index,"Etoposide 1 × 10^−6 mol/L, ALM compound 1.0 μg/ml",No
same,Combination Index,"Etoposide 1 × 10^−6 mol/L, ALM compound 5.0 μg/ml",No
same,Combination Index,"Etoposide 1 × 10^−7 mol/L, ALM compound 0.1 μg/ml",No
same,Combination Index,"Etoposide 1 × 10^−7 mol/L, ALM compound 0.5 μg/ml",No
same,Combination Index,"Etoposide 1 × 10^−7 mol/L, ALM compound 1.0 μg/ml",No
same,Combination Index,"Etoposide 1 × 10^−7 mol/L, ALM compound 5.0 μg/ml",No
same,Combination Index,"Etoposide 1 × 10^−8 mol/L, ALM compound 0.1 μg/ml",0.414
same,Combination Index,"Etoposide 1 × 10^−8 mol/L, ALM compound 0.5 μg/ml",0.910
same,Combination Index,"Etoposide 1 × 10^−8 mol/L, ALM compound 1.0 μg/ml",No
same,Combination Index,"Etoposide 1 × 10^−8 mol/L, ALM compound 5.0 μg/ml",No
same,Combination Index,"Etoposide 1 × 10^−9 mol/L, ALM compound 0.1 μg/ml",0.318
same,Combination Index,"Etoposide 1 × 10^−9 mol/L, ALM compound 0.5 μg/ml",0.829
same,Combination Index,"Etoposide 1 × 10^−9 mol/L, ALM compound 1.0 μg/ml",No
same,Combination Index,"Etoposide 1 × 10^−9 mol/L, ALM compound 5.0 μg/ml",No
same,Combination Index,"Etoposide 1 × 10^−10 mol/L, ALM compound 0.1 μg/ml",0.267
same,Combination Index,"Etoposide 1 × 10^−10 mol/L, ALM compound 0.5 μg/ml",0.494
same,Combination Index,"Etoposide 1 × 10^−10 mol/L, ALM compound 1.0 μg/ml",No
same,Combination Index,"Etoposide 1 × 10^−10 mol/L, ALM compound 5.0 μg/ml",No
same,Combination Index,"Irinotecan 1 × 10^−3 mol/L, ALM compound 0.1 μg/ml",1.133
same,Combination Index,"Irinotecan 1 × 10^−3 mol/L, ALM compound 0.5 μg/ml",0.604
same,Combination Index,"Irinotecan 1 × 10^−3 mol/L, ALM compound 1.0 μg/ml",0.531
same,Combination Index,"Irinotecan 1 × 10^−3 mol/L, ALM compound 5.0 μg/ml",0.611
same,Combination Index,"Irinotecan 1 × 10^−4 mol/L, ALM compound 0.1 μg/ml",0.205
same,Combination Index,"Irinotecan 1 × 10^−4 mol/L, ALM compound 0.5 μg/ml",0.136
same,Combination Index,"Irinotecan 1 × 10^−4 mol/L, ALM compound 1.0 μg/ml",0.053
same,Combination Index,"Irinotecan 1 × 10^−4 mol/L, ALM compound 5.0 μg/ml",0.128
same,Combination Index,"Irinotecan 1 × 10^−5 mol/L, ALM compound 0.1 μg/ml",No
same,Combination Index,"Irinotecan 1 × 10^−5 mol/L, ALM compound 0.5 μg/ml",0.682
same,Combination Index,"Irinotecan 1 × 10^−5 mol/L, ALM compound 1.0 μg/ml",No
same,Combination Index,"Irinotecan 1 × 10^−5 mol/L, ALM compound 5.0 μg/ml",No
same,Combination Index,"Irinotecan 1 × 10^−6 mol/L, ALM compound 0.1 μg/ml",No
same,Combination Index,"Irinotecan 1 × 10^−6 mol/L, ALM compound 0.5 μg/ml",No
same,Combination Index,"Irinotecan 1 × 10^−6 mol/L, ALM compound 1.0 μg/ml",No
same,Combination Index,"Irinotecan 1 × 10^−6 mol/L, ALM compound 5.0 μg/ml",No
same,Combination Index,"Irinotecan 1 × 10^−7 mol/L, ALM compound 0.1 μg/ml",No
same,Combination Index,"Irinotecan 1 × 10^−7 mol/L, ALM compound 0.5 μg/ml",No
same,Combination Index,"Irinotecan 1 × 10^−7 mol/L, ALM compound 1.0 μg/ml",No
same,Combination Index,"Irinotecan 1 × 10^−7 mol/L, ALM compound 5.0 μg/ml",No
same,Combination Index,"Irinotecan 1 × 10^−8 mol/L, ALM compound 0.1 μg/ml",No
same,Combination Index,"Irinotecan 1 × 10^−8 mol/L, ALM compound 0.5 μg/ml",0.500
same,Combination Index,"Irinotecan 1 × 10^−8 mol/L, ALM compound 1.0 μg/ml",No
same,Combination Index,"Irinotecan 1 × 10^−8 mol/L, ALM compound 5.0 μg/ml",No
same,Combination Index,"Irinotecan 1 × 10^−9 mol/L, ALM compound 0.1 μg/ml",No
same,Combination Index,"Irinotecan 1 × 10^−9 mol/L, ALM compound 0.5 μg/ml",No
same,Combination Index,"Irinotecan 1 × 10^−9 mol/L, ALM compound 1.0 μg/ml",No
same,Combination Index,"Irinotecan 1 × 10^−9 mol/L, ALM compound 5.0 μg/ml",No
same,Combination Index,"Irinotecan 1 × 10^−10 mol/L, ALM compound 0.1 μg/ml",0.061
same,Combination Index,"Irinotecan 1 × 10^−10 mol/L, ALM compound 0.5 μg/ml",No
same,Combination Index,"Irinotecan 1 × 10^−10 mol/L, ALM compound 1.0 μg/ml",No
same,Combination Index,"Irinotecan 1 × 10^−10 mol/L, ALM compound 5.0 μg/ml",No
